Test results published in US7147849B2, “Pharmaceutical formulation” (Bitop AG, priority 1999, dated 2006).

Test system: human L540Cy tumors
Set-up: species or system SCID mice
Conditions: mouse, in vivo

CC1=NC[C@H](O)[C@@H](C(=O)O)N1 [S,S-β-hydroxyectoine]
tumor development compared with PBS without S,S-β-hydroxyectoine: faster tumor development | average survival rates calculated according to Kaplan-Meier (iv): 30.0 (±2) days
